Results from US20260053764A1, “COMPOSITION FOR PREVENTING DETERIORATION IN COGNITIVE FUNCTION AND/OR IMPROVING COGNITIVE FUNCTION” (PHARMA FOODS INTERNATIONAL CO., LTD., priority 2020, published 2026).

Test system: cognitive function of a human
Experiment: Cognitrax test in placebo-controlled randomized double-blind clinical tests A and B
Assay type: in vivo
Set-up: Reaction time / Complex attention / Cognitive flexibility / Social acuity / Non-verbal reasoning / Working memory / Continuous attention / Simple attention: scale not given here
Text: A Cognitrax test is known as such an examination that can assess a plurality of domains or items of cognitive function. The Cognitrax test is a cognitive function examination service practiced on the Web based on the cognitive function examination technique developed by CNS Vital Signs in the United States. In the Cognitrax test, among a total of 10 types of tests, which are verbal memory test, visual memory test, finger tapping test, symbol digit coding test (SDC test), Stroop test, shifting attention test, continuous performance test, perception of emotion test, reasoning test and four part continuous performance test, a test is carried out in accordance with the purpose of the examination to digitize the examination result regarding each of a total of 16 types of items at most, which are neurocognition index, composite memory, verbal memory, visual memory, psychomotor speed, reaction time, complex attention, cognitive flexibility, processing speed, executive function, social acuity, non-verbal reasoning, working memory, continuous attention, simple attention and motor speed.
Two types of placebo-controlled randomized double-blind two-group parallel comparison tests were carried out as clinical tests. […] Specifically, capsules comprising 100 mg of dextrin per capsule were used as the placebo food.
The screening examination was carried out to select 60 subjects for each test (a total of 120 subjects). MMSE (Mini Mental State Examination) is an examination for assessing the degree of progression of dementia or the like based on the score thereof with 30 as the perfect score, wherein dementia is suspected with a score of 23 or lower.
• (1) Japanese male and female at the age of 40 or higher • (2) People aware of reduction in cognitive function • (3) People who can continuously ingest the test food every day for 12 weeks • (4) People with an MMSE score of 24 or higher • (5) People who have received sufficient explanation of the purpose/content of the clinical test, have the ability to give consent, voluntarily applied to participate in the clinical test with sufficient understanding, and gave consent to the participation in the clinical test on paper
The total of 120 subjects were randomly divided into test A active group, test A placebo group, test B active group and test B placebo group with 30 subjects in each group. Each subject of the test A active group ingested two capsules of the active food, each subject of the test A placebo group ingested two capsules of the placebo food, each subject of the test B active group ingested one capsule of the active food and each subject of the test B placebo group ingested one capsule of the placebo food.
Each subject followed the schedule shown in the table below and ingested one or two of the assigned capsules together with water for 12 weeks from two weeks after the initial screening examination. All subjects had no particular instruction during the ingestion period and freely took their meals.
As shown with ● in the test schedule in Table 1, Cognitrax was carried out a total of five times, which are upon screening, before starting test food sample ingestion, after four weeks of ingestion, after eight weeks of ingestion and after twelve weeks of ingestion, and the RBANS neuropsychological test was carried out a total of two times, which are before staring test food ingestion and after twelve weeks of ingestion.

[1] = test B 100 mg, before ingestion
[2] = test B 100 mg, before ingestion, mean ± SD

Compound: NCCCC(=O)O [GABA, γ-aminobutyric acid]
- Cognition flexibility: difference between active food and placebo food groups (test B 100 mg, 4 w): −3.6
- Complex attention: difference between active food and placebo food groups (test B 100 mg, 4 w): −4.0
- Composite memory: difference between active food and placebo food groups (test B 100 mg, 4 w): 7.2
- Continuous attention: difference between active food and placebo food groups (test B 100 mg, 4 w): −0.6
- Executive function: difference between active food and placebo food groups (test B 100 mg, 4 w): −3.2
- Motor speed: difference between active food and placebo food groups (test B 100 mg, 4 w): 6.9
- Non-verbal reasoning: difference between active food and placebo food groups (test B 100 mg, 4 w): 0.5
- Processing speed: difference between active food and placebo food groups (test B 100 mg, 4 w): 0.8
- Psychomotor speed: difference between active food and placebo food groups (test B 100 mg, 4 w): 5.3
- Reaction time: difference between active food and placebo food groups (test B 100 mg, 4 w): 0.8
- Simple attention: difference between active food and placebo food groups (test B 100 mg, 4 w): −5.8
- Social acuity: difference between active food and placebo food groups (test B 100 mg, 4 w): −4.4
- Verbal memory: difference between active food and placebo food groups (test B 100 mg, 4 w): 9.1
- Visual memory: difference between active food and placebo food groups (test B 100 mg, 4 w): 2.4
- Working memory: difference between active food and placebo food groups (test B 100 mg, 4 w): 0.4
- Cognitive flexibility (test B 100 mg, 4 w, mean ± SD): 105.8 ± 11.3
- Complex attention (test B 100 mg, 4 w, mean ± SD): 106.3 ± 12.9
- Continuous attention (test B 100 mg, 4 w, mean ± SD): 111.8 ± 7.2
- Reaction time (test B 100 mg, 4 w, mean ± SD): 97.8 ± 10.8
- Simple attention (test B 100 mg, 4 w, mean ± SD): 97.8 ± 25.2
- Social acuity (test B 100 mg, 4 w, mean ± SD): 90.5 ± 16.7
- Working memory (test B 100 mg, 4 w, mean ± SD): 110.4 ± 9.3
- Cognition flexibility: difference between active food and placebo food groups (test B 100 mg, 8 w): −0.5
- Complex attention: difference between active food and placebo food groups (test B 100 mg, 8 w): −0.4
- Composite memory: difference between active food and placebo food groups (test B 100 mg, 8 w): 7.4
- Continuous attention: difference between active food and placebo food groups (test B 100 mg, 8 w): −0.8
- Executive function: difference between active food and placebo food groups (test B 100 mg, 8 w): −0.4
- Motor speed: difference between active food and placebo food groups (test B 100 mg, 8 w): 7.3
- Non-verbal reasoning: difference between active food and placebo food groups (test B 100 mg, 8 w): 0.5
- Processing speed: difference between active food and placebo food groups (test B 100 mg, 8 w): 1.5
- Psychomotor speed: difference between active food and placebo food groups (test B 100 mg, 8 w): 6.3
- Reaction time: difference between active food and placebo food groups (test B 100 mg, 8 w): 1.4
- Simple attention: difference between active food and placebo food groups (test B 100 mg, 8 w): 2.8
- Social acuity: difference between active food and placebo food groups (test B 100 mg, 8 w): 6.1
- Verbal memory: difference between active food and placebo food groups (test B 100 mg, 8 w): 8.8
- Visual memory: difference between active food and placebo food groups (test B 100 mg, 8 w): 3.1
- Working memory: difference between active food and placebo food groups (test B 100 mg, 8 w): −1.8
- Complex attention (test B 100 mg, 8 w, mean ± SD): 109.6 ± 10.3
- Continuous attention (test B 100 mg, 8 w, mean ± SD): 110.2 ± 8.9
- Non-verbal reasoning (test B 100 mg, 8 w, mean ± SD): 106.2 ± 12.2
- Reaction time (test B 100 mg, 8 w, mean ± SD): 97.9 ± 10.0
- Simple attention (test B 100 mg, 8 w, mean ± SD): 101.3 ± 13.0
- Social acuity (test B 100 mg, 8 w, mean ± SD): 95.4 ± 17.0
- Working memory (test B 100 mg, 8 w, mean ± SD): 109.8 ± 9.5
- Cognition flexibility: difference between active food and placebo food groups (test B 100 mg, 12 w): −2.3
- Complex attention: difference between active food and placebo food groups (test B 100 mg, 12 w): −2.5
- Composite memory: difference between active food and placebo food groups (test B 100 mg, 12 w): 5.5
- Continuous attention: difference between active food and placebo food groups (test B 100 mg, 12 w): 0.0
- Executive function: difference between active food and placebo food groups (test B 100 mg, 12 w): −2.4
- Motor speed: difference between active food and placebo food groups (test B 100 mg, 12 w): 6.5
- Non-verbal reasoning: difference between active food and placebo food groups (test B 100 mg, 12 w): 3.9
- Processing speed: difference between active food and placebo food groups (test B 100 mg, 12 w): 2.4
- Psychomotor speed: difference between active food and placebo food groups (test B 100 mg, 12 w): 5.4
- Reaction time: difference between active food and placebo food groups (test B 100 mg, 12 w): −1.7
- Simple attention: difference between active food and placebo food groups (test B 100 mg, 12 w): −6.5
- Social acuity: difference between active food and placebo food groups (test B 100 mg, 12 w): 4.6
- Verbal memory: difference between active food and placebo food groups (test B 100 mg, 12 w): 6.8
- Visual memory: difference between active food and placebo food groups (test B 100 mg, 12 w): 2.1
- Working memory: difference between active food and placebo food groups (test B 100 mg, 12 w): 0.9
- Complex attention (test B 100 mg, 12 w, mean ± SD): 109.9 ± 10.1
- Continuous attention (test B 100 mg, 12 w, mean ± SD): 110.8 ± 13.8
- Motor speed (test B 100 mg, 12 w, mean ± SD): 108.3 ± 12.9
- Non-verbal reasoning (test B 100 mg, 12 w, mean ± SD): 107.5 ± 10.6
- Simple attention (test B 100 mg, 12 w, mean ± SD): 99.2 ± 21.3
- Social acuity (test B 100 mg, 12 w, mean ± SD): 97.2 ± 17.0
- Working memory (test B 100 mg, 12 w, mean ± SD): 112.2 ± 7.9
- Cognition flexibility: difference between active food and placebo food groups [1]: 2.4
- Complex attention: difference between active food and placebo food groups [1]: 3.0
- Composite memory: difference between active food and placebo food groups [1]: 5.2
- Continuous attention: difference between active food and placebo food groups [1]: 1.2
- Executive function: difference between active food and placebo food groups [1]: 2.1
- Motor speed: difference between active food and placebo food groups [1]: 6.4
- Non-verbal reasoning: difference between active food and placebo food groups [1]: 3.1
- Processing speed: difference between active food and placebo food groups [1]: 1.5
- Psychomotor speed: difference between active food and placebo food groups [1]: 4.5
- Reaction time: difference between active food and placebo food groups [1]: 1.9
- Simple attention: difference between active food and placebo food groups [1]: 3.3
- Social acuity: difference between active food and placebo food groups [1]: 0.8
- Verbal memory: difference between active food and placebo food groups [1]: 6.4
- Visual memory: difference between active food and placebo food groups [1]: 2.0
- Working memory: difference between active food and placebo food groups [1]: 2.6
- Cognitive flexibility [2]: 105.9 ± 10.0
- Continuous attention [2]: 111.6 ± 6.9
- Executive function [2]: 105.5 ± 9.9
- Non-verbal reasoning [2]: 102.6 ± 14.1
- Reaction time [2]: 98.1 ± 9.0
- Simple attention [2]: 101.2 ± 14.9
- Social acuity [2]: 92.6 ± 16.0
- Working memory [2]: 110.5 ± 7.9
- scores regarding motor speed, GABA group compared to the placebo group (test B, at least after eight weeks of ingestion): significant improvement
